Results on 42 compounds are retold here after patent US12679839B2, “Cyclin-dependent kinase 7 (CDK7) non-covalent inhibitors” (JANSSEN PHARMACEUTICA NV, priority 2020, dated 2026).

For this test, the system named is RNA polymerase II Serine 5 phosphorylation (Rpb1 CTD), downstream substrate of CDK7. The experiment in a line: Imaging-based cellular RNA PolII Ser5 phosphorylation assay in A549 cells. In kind it is cell-based, human. The settings on record: Homo sapiens, A549, 3 h, challenged with compound for 3 hours, read-out: pRNA polII Ser5 (A549) pIC50 (converted). The method, boiled down: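 A549 cells seeded 20 h in DMEM with 1% FBS, then exposed to compound for 3 h at 37 °C; fixed, methanol-permeabilized and immunostained for phospho-Rpb1 CTD Ser5, read by automated imaging. Signal normalized to DMSO (high) and 10 μM LDC4297 (low) controls; IC50 from four-parameter fit of % control vs concentration.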
As for `C[C@@H]1Cc2cnc(NC3CCOCC3)nc2CN1C(=O)[C@H]1CCN(C)C[C@@H]1c1ccc(Cl)c(F)c1` [Compound 122b], the IC50 was roughly 63.1 nM.

In the case of `C[C@@H]1Cc2cnc(Nc3cnn4c3CCCC4)nc2CN1C(=O)[C@H]1CCN(C)C[C@@H]1c1ccccc1` [Compound 77], the IC50 was 316 nM.

On to `C[C@@H]1c2nc(NC3CCOCC3)ncc2[C@@H](C)CN1C(=O)[C@H]1CCN(C)C[C@@H]1c1ccccc1` [Compound 180a], for which the IC50 is roughly 32.4 nM.

Regarding `C[C@@H]1Cc2cnc(NCc3ccn(C)n3)nc2CN1C(=O)[C@H]1CCN(C)C[C@@H]1c1ccccc1` [Compound 1], the IC50 was roughly 45.7 nM.

On to `C[C@@H]1Cc2cnc(NC3CCN(CC(F)(F)F)CC3)nc2CN1C(=O)[C@H]1CCN(C)C[C@@H]1c1ccccc1` [Compound 45], for which the IC50 was 437 nM.

`C[C@@H]1Cc2cnc(N[C@@H](CO)c3ccccc3)nc2CN1C(=O)[C@H]1CCN(C)C[C@@H]1c1ccccc1` [Compound 71]: the IC50 was 120 nM.

With `C[C@@H]1Cc2cnc(N[C@@H]3CCOC4(CCC4)C3)nc2CN1C(=O)[C@H]1CCN(C)C[C@@H]1c1ccccc1` (relative stereo) [Compound 8], the IC50 was 69.2 nM.

For the compound `Cc1ccc(CNc2ncc3c(n2)CN(C(=O)[C@H]2CCN(C)C[C@@H]2c2ccccc2)[C@H](C)C3)o1` [Compound 50], the IC50 was 72.4 nM.

For `C[C@@H]1Cc2cnc(N[C@H]3CC[C@H](C)CC3)nc2CN1C(=O)[C@H]1CCN(C)C[C@@H]1c1ccccc1` [Compound 13], the IC50 is roughly 33.9 nM.

On to `C[C@@H]1Cc2cnc(N[C@H]3CCC[C@H](O)C3)nc2CN1C(=O)[C@H]1CCN(C)C[C@@H]1c1ccccc1` [Compound 59], for which the IC50 was 141 nM.

For `C[C@H]1Cc2cnc(NC3(c4ccccc4)COC3)cc2CN1C(=O)[C@H]1CCN(C)C[C@@H]1c1ccccc1` (single isomer, unassigned) [Compound 175], the IC50 is 166 nM.

Regarding `C[C@@H]1Cc2cnc(NC3CCOCC3)nc2CN1C(=O)N1CCN(C)C[C@@H]1c1ccccc1` [Compound 204a], the IC50 was 269 nM.

Take `C[C@@H]1Cc2cnc(NC3CCN(S(=O)(=O)C4CC4)CC3)nc2CN1C(=O)N1CCN(C)C[C@@H]1c1ccccc1` [Compound 210]: the IC50 was 110 nM.

Take `Cc1cccc([C@H]2CN(C(C)C)CC[C@@H]2C(=O)N2Cc3nc(NC4CCOCC4)ncc3C[C@H]2C)c1` [Compound 166]: the IC50 was roughly 51.3 nM.

With `C[C@@H]1Cc2cnc(NC3CCS(=O)(=O)CC3)nc2CN1C(=O)[C@H]1CCN(C)C[C@@H]1c1ccccc1` [Compound 44], the IC50 is 3090 nM.

With `CN1CC[C@H](C(=O)N2Cc3nc(NCc4ccn(C)n4)ncc3CC2(C)C)[C@@H](c2ccccc2)C1` (single isomer, unassigned) [Compound 191], the IC50 is roughly 4270 nM.

As for `C[C@@H]1Cc2cnc(NC(C)(C)c3cnn(C)c3)nc2CN1C(=O)[C@H]1CCN(C)C[C@@H]1c1ccccc1` [Compound 90], the IC50 was 5010 nM.

Regarding `C[C@@H]1Cc2cnc(NCc3cnn(C)c3)nc2CN1C(=O)[C@H]1CCN(C)C[C@@H]1c1ccccc1` [Compound 57], the IC50 is 2950 nM.

Take `Cc1cccc([C@H]2CN(C)CC[C@@H]2C(=O)N2Cc3nc(NC4CCOCC4)ncc3C[C@H]2C)c1` [Compound 93]: the IC50 was roughly 67.6 nM.

As to `C[C@H]1Cc2cnc(Nc3cnn(C)c3)cc2CN1C(=O)[C@H]1CCN(C)C[C@@H]1c1ccccc1` (relative stereo) [Compound 176], the IC50 was 380 nM.

Take `CO[C@H]1CC[C@H](Nc2ncc3c(n2)CN(C(=O)[C@H]2CCN(C)C[C@@H]2c2ccccc2)[C@H](C)C3)CC1` [Compound 37]: the IC50 is roughly 33.9 nM.

For the compound `C[C@@H]1Cc2cnc(NCc3ccsc3)nc2CN1C(=O)[C@H]1CCN(C)C[C@@H]1c1ccccc1` [Compound 48], the IC50 is 132 nM.

On to `C[C@@H]1Cc2cnc(NC3CCS(=O)(=O)CC3)nc2CN1C(=O)N1CCN(C)C[C@@H]1c1ccccc1` [Compound 214], for which the IC50 was 3550 nM.

Regarding `CO[C@]1(C)CC[C@@H](Nc2ncc3c(n2)CN(C(=O)[C@H]2CCN(C)C[C@@H]2c2ccccc2)[C@H](C)C3)CC1` [Compound 10], the IC50 was 158 nM.

Take `C[C@@H]1Cc2cnc(N[C@@H]3CCOC(C)(C)C3)nc2CN1C(=O)[C@H]1CCN(C)C[C@@H]1c1ccccc1` (relative stereo) [Compound 40]: the IC50 is roughly 52.5 nM.

As for `CO[C@H]1CC[C@H](Nc2cc3c(cn2)C[C@H](C)N(C(=O)[C@H]2CCN(C)C[C@@H]2c2cccc(C)c2)C3)CC1` [Compound 177c], the IC50 is roughly 97.7 nM.

As for `C[C@@H]1Cc2cnc(NCc3ccn(C)n3)nc2CN1C(=O)[C@H]1CCN(C)C[C@@H]1c1cccc(OC(F)(F)F)c1` (relative stereo) [Compound 128], the IC50 is 102 nM.

Regarding `C[C@@H]1Cc2cnc(N[C@H]3CCC(=O)N(C)C3)nc2CN1C(=O)[C@H]1CCN(C)C[C@@H]1c1ccccc1` (relative stereo) [Compound 7], the IC50 is 933 nM.

Turning to `Cc1ncc(CNc2ncc3c(n2)CN(C(=O)[C@H]2CCN(C)C[C@@H]2c2ccccc2)[C@H](C)C3)[nH]1` [Compound 52], the IC50 was 2450 nM.

`CC(C)n1cc(Nc2ncc3c(n2)CN(C(=O)[C@H]2CCN(C)C[C@@H]2c2ccccc2)[C@H](C)C3)cn1` [Compound 89]: the IC50 was 70.8 nM.

Regarding `C[C@@H]1Cc2cnc(Nc3ccnc(C(F)F)c3)nc2CN1C(=O)[C@H]1CCN(C)C[C@@H]1c1ccccc1` [Compound 75], the IC50 is 57.5 nM.

Regarding `C[C@@H]1Cc2cnc(NC[C@@H]3CCCO3)nc2CN1C(=O)[C@H]1CCN(C)C[C@@H]1c1ccccc1` [Compound 67], the IC50 is 1320 nM.

On to `Cc1cccc([C@H]2CN(C)CC[C@@H]2C(=O)N2Cc3nc(Nc4cnn(C)c4)ncc3[C@@H]3C[C@@H]32)c1` (relative stereo) [Compound 203], for which the IC50 is 148 nM.

Turning to `C[C@@H]1Cc2cnc(NC[C@@H]3CCOC3)nc2CN1C(=O)[C@H]1CCN(C)C[C@@H]1c1ccccc1` [Compound 62], the IC50 is 617 nM.

In the case of `C[C@@H]1Cc2cnc(N[C@H]3CCOC4(CCC4)C3)nc2CN1C(=O)[C@H]1CCN(C)C[C@@H]1c1ccccc1` (relative stereo) [Compound 9], the IC50 was 309 nM.

For the compound `CN1CC[C@H](C(=O)N2Cc3nc(NC4CCOCC4)ncc3[C@@H]3C[C@@H]32)[C@@H](c2ccccc2)C1` [Compound 199], the IC50 was roughly 58.9 nM.

For the compound `C[C@H](Nc1ncc2c(n1)CN(C(=O)[C@H]1CCN(C)C[C@@H]1c1ccccc1)[C@H](C)C2)c1ccccn1` [Compound 20], the IC50 was roughly 14.1 nM.

As to `C[C@@H]1Cc2cnc(NC3CCN(S(=O)(=O)N(C)C)CC3)nc2CN1C(=O)N1CCN(C)C[C@@H]1c1ccccc1` [Compound 211], the IC50 was 724 nM.

For the compound `C[C@@H]1Cc2cnc(Nc3cnn(CC(C)(C)O)c3)nc2CN1C(=O)[C@H]1CCN(C)C[C@@H]1c1ccccc1` [Compound 74], the IC50 is 178 nM.

As for `C[C@@H]1Cc2cnc(NCc3cc[nH]n3)nc2CN1C(=O)[C@H]1CCN(C)C[C@@H]1c1ccccc1` [Compound 51], the IC50 is 1320 nM.

Turning to `C[C@@H]1Cc2cnc(N[C@H](CO)c3ccccc3)nc2CN1C(=O)[C@H]1CCN(C)C[C@@H]1c1ccccc1` [Compound 72], the IC50 is 200 nM.

Turning to `C[C@@H]1Cc2cnc(N[C@H](C)c3ccccc3)nc2CN1C(=O)[C@H]1CCN(C)C[C@@H]1c1ccccc1` [Compound 22], the IC50 is roughly 14.1 nM.
